Measurements reported in US20160209428A1, “DIAGNOSTIC AND PREDICTIVE METABOLITE PATTERNS FOR DISORDERS AFFECTING THE BRAIN AND NERVOUS SYSTEM” (THE REGENTS OF THE UNIVERSITY OF CALIFORNIA, priority 2013, published 2016).

Tests used:
cerebral synaptosomes = test: Synaptosome isolation and ultrastructure (electron microscopy); type: in vivo, mouse; settings: suramin-treated Fmr1 KO mice
Excerpt: Cerebral samples were collected, homogenized and synaptosomes isolated by discontinuous Percoll gradient centrifugation, drop dialyzed, glutaraldehyde fixed, post-fixed in osmium tetroxide, embedded, sectioned, and stained with uranyl acetate for transmission electron microscopy. Samples from the FVB control animals (+/−suramin) were not available for study by either electron microscopy or Western analysis.
In the present study of the Fragile X model, saline-treated Fmr1 knockout mice had cerebral synaptosomes that also contained an electron dense matrix, and fragile, hypomorphic post-synaptic densities.

[1] = mice, after a single dose; cited from earlier work
[2] = tested on: maternal immune activation (MIA) mouse model; test: Rotarod (latency to fall), MIA model; type: in vivo; settings: MIA 6-month-old adults, single injection of suramin
Excerpt: (N=8-13, 6.75-month-old males per group).
Previous studies have shown age-dependent, postnatal loss of cerebellar Purkinje cells in the MIA model. This can reach up to 60% of Purkinje cells lost by 4 months (16 weeks) of age. Motor coordination measured by rotarod performance is deficient in the MIA model and is critically dependent on the integrity of Purkinje cell circuits in the cerebellum. Since Purkinje cells are known to be lost in MIA animals by 4 months (16 weeks) of age, it was hypothesized that APT given later in life would have no effect. The results confirmed this. […] Although cerebellar Purkinje cell density was not quantified in this study, our results are consistent with the notion that once Purkinje cells are lost, their function cannot be restored by APT in adult animals.

[3] = tested on: Fragile X (Fmr1) knockout mouse; test: Body temperature measurements (rectal core temperature); type: in vivo
Protocol: A BAT-12 Microprobe digital thermometer and RET-3 mouse rectal probe (Physitemp Instruments, Clifton, N.J.) were used to obtain rectal core temperatures to a precision of +/−0.1° C. Care was taken to measure temperatures ≧2 days after cage bedding changes, and to avoid animal transport stress immediately prior to measurement in order to avoid stress-induced hyperthermia (Adriaan Bouwknecht et al., 2007). Temperatures were measured between 9 am to 12 noon each day.
Normal basal body temperature was restored by antipurinergic therapy with suramin.

[4] = Suramin quantitation in plasma and brain tissues by LC-MS/MS; type: in vivo, mouse
Protocol: Offspring of timed matings were weaned at 3-4 weeks of age into cages of two to four animals. No mice were housed in isolation. Only males were evaluated in these studies. Littermates were identified by ear tags and distributed into different cages in order to minimize litter and dam effects. […] Beginning 2 days later, behaviors were evaluated.
Tissue samples (brainstem, cerebrum and cerebellum) were ground into powder under liquid nitrogen in a pre-cooled mortar. Powdered tissue (15-50 mg) was weighed and mixed with the internal standard trypan blue to a final concentration of 5 μM (pmol mg^−1) and incubated at room temperature for 10 min to permit metabolite interaction with binding proteins. Nine volumes of methanol:acetonitrile:H2O (43:43:16) pre-chilled to −20° C. was added to produce a final solvent ratio of 40:40:20, and the samples were deproteinated and macromolecules removed by precipitation on crushed ice for 30 min. The mixture was centrifuged at 16 000 g for 10 min at 4° C. and the supernatant was transferred to a new tube and kept at −80° C. for further LC-MS/MS (liquid chromatography-tandem mass spectrometry) analysis. For plasma, 90 μl was used, to which 10 μl of 50 μM stock of trypan blue was added to achieve an internal standard concentration of 5 μM. This was incubated at room temperature for 10 min to permit metabolite interaction with binding proteins, then extracted with 4 volumes (400 μl) of pre-chilled methanol:acetonitrile (50:50) to produce a final concentration of 40:40:20 (methanol:acetonitrile:H2O) and precipitated on ice for 10 min. Other steps were the same as for solid tissue extraction.
Ten microliters of extract were injected onto a Kinetix pentafluorophenyl column (150×2.1 mm, 2.6 μm; Phenomenex, Torrance, Calif., USA) held at 30° C. for chromatographic separation. The mobile phase A was water with 20 mM ammonium acetate (NH4OAC; pH 7) and mobile phase B was methanol with 20 mM NH4OAC (pH 7). […] The flow rate was 300 μl min^−1. All the samples were kept at 4° C. during analysis. […] The electrospray ionization source parameters were set as follows: source temperature 500° C.; curtain gas 30; ion source gas 1, 35; ion source gas 2 35; spray voltage −4500V. Analyst 1.6.1 was used for data acquisition and analysis. N=4-6 per tissue. Results are reported as means±s.e.m. in absolute μM (pmol μl^−1) concentration for plasma, and pmol mg^−1 wet weight for tissues.
After completing the behavioral studies described above, mass spectrometry was used to measure drug levels in plasma, cerebrum, cerebellum and brainstem following a 5-week period of drug washout.

[5] = tested on: Fragile X (Fmr1) knockout mouse; test: Marble burying, Fragile X model; type: in vivo; settings: KO-Sal v KO-Sur
Protocol: Marble burying behavior was measured over 30 minutes by a modification of methods used by Thomas, et al. (Thomas et al., 2009). Marble burying was used as a measure of normal rodent digging behavior. Marble burying has sometimes been considered a measure of anxiety, however, comprehensive genetic and behavioral studies have shown that marble burying is a normal mouse behavior that is genetically determined (Thomas et al., 2009). Marble burying was diminished 38% in Fragile X knockout mice.

[6] = 2 days after 20 mg kg^−1 i.p., control (Sal-Sur) or MIA (PIC-Sur) animals

Cc1ccc(C(=O)Nc2ccc(S(=O)(=O)O)c3cc(S(=O)(=O)O)cc(S(=O)(=O)O)c23)cc1NC(=O)c1cccc(NC(=O)Nc2cccc(C(=O)Nc3cc(C(=O)Nc4ccc(S(=O)(=O)O)c5cc(S(=O)(=O)O)cc(S(=O)(=O)O)c45)ccc3C)c2)c1 [Suramin, suramin]
cerebral synaptosome ultrastructure (cerebral synaptosomes): near-normal appearing cerebral synaptosomes | plasma half-life [1]: 1 week | motor coordination (rotarod) [2]: failed to restore normal motor coordination | body temperature of control animals ([3]; WT-Sal vs WT-Sur): no effect | basal body temperature of Fmr1 knockout mice ([3]; relative hypothermia of knockout, suramin treatment): restored | brainstem suramin ([4]; 2 days after 20 mg kg^−1 i.p.): 5.15 pmol/mg | suramin in cerebellum [4, 6]: < 0.10 pmol mg^−1 wet weight | suramin in cerebrum [4, 6]: < 0.10 pmol mg^−1 wet weight | suramin in any tissue (plasma, cerebrum, cerebellum, brainstem) ([4]; after 5 weeks of drug washout): No suramin was detected | concentration at 2 days ([4]; male, mouse, plasma, ip, 2 days after 20 mg kg^−1 i.p.): 7.64 µM | diminished marble burying [5]: improved
